The text below walks through data of US20240016777A1, “COMPOUNDS AND METHODS FOR TREATING VIRAL INFECTIONS” (priority 2020, published 2024).

Each structure is given as a SMILES string.

One test has as its target SARS-CoV-2 M^pro (Severe acute respiratory syndrome coronavirus 2 (2019-nCoV) (SARS-CoV-2), UniProt P0DTD1). The test can be described thus: biochemical. The following applies: IC50; compounds evaluated at 0.015-300 μM.
As to `COc1c(O)cc2oc(-c3ccc(O)c(O)c3)cc(=O)c2c1O` [6-methoxyluteolin], the IC50 came to 4 µM.

Staying with this test, now noted: compound at 17 μM, duplicates, 20 min pre-incubation.
For `C[C@@H]1O[C@@H](OC[C@H]2O[C@@H](Oc3c(-c4ccc(O)cc4)oc4cc(O)cc(O)c4c3=O)[C@H](O)[C@@H](O)[C@H]2O)[C@H](O)[C@H](O)[C@H]1O` [Biorobin], the “Activity (% enzyme activity by fluorescence relative to initial enzyme activity)” value was “+++ (<10% enzyme activity as indicated by fluorescence measurements)”.

The same test, now with this note: compound at 17 μM, duplicates, 20 min pre-incubation; read-out: Activity (% enzyme activity by fluorescence relative to initial enzyme activity).
On to `CC(C)=CCC/C(C)=C/Cc1c(-c2ccc(O)cc2O)oc2cc(O)cc(O)c2c1=O` [5,7,2′,4′-Tetrahydroxy-3-geranylflavone], for which the remaining activity at 17 µM lay within 10 to 80%.

As for `C=C(C)C(CC=C(C)C)Cc1c(O)cc(O)c2c(=O)c(O)c(-c3ccc(O)cc3)oc12` (stereo not drawn) [8-Lavandulylkaempferol], the remaining activity at 17 µM lay in the range of 10 to 80%.

The test is the same for the next values; noted with them: compounds evaluated at 0.015-300 μM; read-out: IC50.
For `C[C@@H]1O[C@@H](OC[C@H]2O[C@@H](Oc3c(-c4ccc(O)cc4)oc4cc(O)cc(O)c4c3=O)[C@H](O)[C@@H](O)[C@H]2O)[C@H](O)[C@H](O)[C@H]1O` [Biorobin], the half-inhibitory concentration (IC50) was 7 µM.

The same test, now with this note: read-out: Activity (% enzyme activity by fluorescence relative to initial enzyme activity), compound at 17 μM, duplicates, 20 min pre-incubation.
For the molecule `CC(C)=CCc1cc(C2CC(=O)c3c(O)cc(O)cc3O2)c(CC=C(C)C)c(O)c1O` (racemic) [(+/−)-Sigmoidin A], the remaining activity at 17 µM lay within 10 to 80%.

`COc1ccc2c(c1CC=C(C)C)O[C@H](c1ccc(O)cc1O)CC2` (stereo in doubt) [2′,4′-Dihydroxy-7-methoxy-8-prenylflavan]: the remaining activity at 17 µM is greater than 80%.

Turning to `COc1cc(O)c(CC=C(C)C)c2c1C(=O)[C@H](O)[C@@H](c1ccc(O)cc1)O2` (stereo in doubt) [3,7,4′-Trihydroxy-5-methoxy-8-prenylflavanone], the remaining activity at 17 µM was greater than 80%.

Turning to `CC(C)=CCc1c(O)ccc([C@H]2COc3c(CC=C(C)C)c(O)cc(O)c3C2=O)c1O` (stereo in doubt) [5,7,2′,4′-Tetrahydroxy-8,3′-di(gamma,gamma-dimethylallyl)-isoflavanone], the remaining activity at 17 µM lay within 10 to 80%.

Turning to `COc1ccc([C@@H]2CC(=O)c3c(O)cc(O)c(CC=C(C)C)c3O2)cc1O` (stereo in doubt) [5,7,3′-Trihydroxy-4′-methoxy-8-prenylflavanone], the remaining activity at 17 µM was greater than 80%.

As for `CC(C)=CCc1c(O)cc(O)c2c(=O)c(-c3ccc(O)cc3O)coc12` [2,3-dehydrokievitone], the remaining activity at 17 µM fell in the range of 10 to 80%.

As to `O=c1c(-c2ccc(O)cc2O)coc2cc(O)cc(O)c12` [2′-hydroxygenistein], the remaining activity at 17 µM is greater than 80%.

As to `C=C(C)[C@H](CC=C(C)C)Cc1c(O)cc(OC)c2c1O[C@H](c1ccc(O)cc1OC)CC2=O` [2′-methoxykurarinone], the remaining activity at 17 µM is greater than 80%.

`COc1ccc(-c2oc3c(CC=C(C)C)c(O)cc(O)c3c(=O)c2O[C@@H]2O[C@@H](C)[C@H](O)[C@@H](O)[C@H]2O[C@@H]2O[C@@H](C)[C@H](O)[C@@H](O)[C@H]2O)cc1` [2″-O-Rhamnosylicariside II]: the remaining activity at 17 µM lay in the range of 10 to 80%.

As for `CC(C)=CCc1cc(-c2coc3cc(O)cc(O)c3c2=O)cc(CC=C(C)C)c1O` [3′,5′-Diprenylgenistein], the remaining activity at 17 µM is greater than 80%.

`CC(C)=CCC/C(C)=C/Cc1c(O)ccc(-c2oc3cc(O)cc(O)c3c(=O)c2CC=C(C)C)c1O` [3′-Geranyl-3-prenyl-2′,4′,5,7-tetrahydroxyflavone]: the remaining activity at 17 µM fell in the range of 10 to 80%.

`CC(C)=CCc1c(O)cc2oc(-c3ccc(O)cc3)cc(=O)c2c1O` [4′,5,7-Trihydroxy-6-prenylflavone]: the remaining activity at 17 µM was greater than 80%.

With `COc1ccc([C@@H]2CC(=O)c3c(O)cc(O)cc3O2)cc1CC=C(C)C` [4′-O-Methyllicoflavanone], the remaining activity at 17 µM fell in the range of 10 to 80%.

As for `COc1c(-c2cc(O)c(O)c(CC=C(C)C)c2)oc2c(CC=C(C)C)c(O)cc(O)c2c1=O` [5,7,3′,4′-Tetrahydroxy-3-methoxy-8,5′-diprenylflavone], the remaining activity at 17 µM is greater than 80%.

Consider `COc1c(-c2ccc(O)c(O)c2)oc2c(C/C=C(\C)CCC=C(C)C)c(O)cc(O)c2c1=O` [5,7,3′,4′-Tetrahydroxy-3-methoxy-8-geranylflavone], for which the remaining activity at 17 µM is greater than 80%.

Regarding `COc1c(O)cc2oc(-c3ccc(O)c(CC=C(C)C)c3)c(OC)c(=O)c2c1O` [5,7,4-Trihydroxy-3,6-dimethoxy-3-prenylflavone], the remaining activity at 17 µM is greater than 80%.

As for `COc1c(O)cc2oc(-c3cc(CC=C(C)C)c(O)c(CC=C(C)C)c3)c(OC)c(=O)c2c1O` [5,7,4′-Trihydroxy-3,6-dimethoxy-3′,5′-diprenylflavone], the remaining activity at 17 µM is greater than 80%.

`CC(C)=CCc1cc([C@@H]2CC(=O)c3c(O)cc(O)c(CC=C(C)C)c3O2)cc(CC=C(C)C)c1O` [5-Hydroxysophoranone]: the remaining activity at 17 µM was greater than 80%.

For the molecule `CC(C)=CCC/C(C)=C/Cc1cc(-c2cc(=O)c3c(O)cc(O)cc3o2)c(O)cc1O` [5′-Geranyl-5,7,2′,4′-tetrahydroxyflavone], the remaining activity at 17 µM was greater than 80%.

For `COc1c(O)cc2oc(-c3cc(CC=C(C)C)c(O)c(CCC(C)CO)c3)c(OC)c(=O)c2c1O` (stereo not drawn) [5′-Prenylaliarin], the remaining activity at 17 µM is greater than 80%.

For the molecule `CC(C)=CCc1c(O)c(CC=C(C)C)c2occ(-c3ccc(O)cc3)c(=O)c2c1O` [6,8-Diprenylgenistein], the remaining activity at 17 µM was in the range of 10 to 80%.

In the case of `CC(C)=CCc1c(O)c(CC=C(C)C)c2c(c1O)C(=O)C[C@@H](c1ccc(O)cc1)O2` [6,8-Diprenylnaringenin], the remaining activity at 17 µM was greater than 80%.

With `CC(C)=CCc1c(O)c(CC=C(C)C)c2occ(-c3ccc(O)c(O)c3)c(=O)c2c1O` [6,8-Diprenylorobol], the remaining activity at 17 µM is greater than 80%.

As for `CC(C)=CCC/C(C)=C/Cc1c(O)cc2c(c1O)C(=O)C[C@@H](c1ccc(O)cc1)O2` [6-Geranylnaringenin], the remaining activity at 17 µM is greater than 80%.

Regarding `CC(C)=CCc1c(O)c(C)c(O)c2c1O[C@H](c1ccc(O)cc1)CC2=O` [6-Methyl-8-prenylnaringenin], the remaining activity at 17 µM is less than 10%.

As to `CC(C)=CCc1c(O)cc2c(c1O)C(=O)C[C@@H](c1ccc(O)cc1)O2` [6-Prenylnaringenin], the remaining activity at 17 µM was greater than 80%.

In the case of `COc1c(-c2ccc(O)c(O)c2)oc2cc(O)c(CC=C(C)C)c(O)c2c1=O` [6-Prenylquercetin-3-methylether], the remaining activity at 17 µM was greater than 80%.

`COc1c(O)cc2oc(-c3ccc(O)c(O)c3)cc(=O)c2c1O` [6-methoxyluteolin]: the remaining activity at 17 µM is 10 to 80%.

`CC(C)=CCc1cc(-c2cc(=O)c3c(O)cc(O)c(CC=C(C)C)c3o2)ccc1O` [8,3′-Diprenylapigenin]: the remaining activity at 17 µM was less than 10%.

Turning to `CC(C)=CCc1c(O)ccc2c(=O)c(-c3ccc(O)cc3)coc12` [8-Prenyldaidzein], the remaining activity at 17 µM is greater than 80%.

With `CC(C)=CCc1c(O)cc(O)c2c(=O)c(O)c(-c3ccc(O)cc3)oc12` [8-Prenylkaempferol], the remaining activity at 17 µM is greater than 80%.

Take `CC(C)=CCc1c(O)c(CC=C(C)C)c2occ(-c3ccc(O)cc3O)c(=O)c2c1O` [8-Prenylluteone]: the remaining activity at 17 µM was greater than 80%.

As for `CC(C)=CCc1c(O)cc(O)c2c1O[C@H](c1ccc(O)cc1)CC2=O` [8-Prenylnaringenin], the remaining activity at 17 µM was 10 to 80%.

Consider `CC(C)=CCc1cc([C@@H]2CC(=O)c3ccc(O)c(CC=C(C)C)c3O2)cc(CC=C(C)C)c1O` [(−)-Sophoranone], for which the remaining activity at 17 µM was 10 to 80%.

Consider `CC(C)=CCc1c(-c2ccc(O)cc2O)oc2cc(O)cc(O)c2c1=O` [Albanin A], for which the remaining activity at 17 µM is greater than 80%.

Take `CC(C)=CCc1c(O)cc2oc(-c3ccc(O)cc3O)cc(=O)c2c1O` [Artocarpesin]: the remaining activity at 17 µM was greater than 80%.

With `COc1cc2oc(-c3ccc(O)cc3O)c(CC=C(C)C)c(=O)c2c(O)c1/C=C/C(C)C` [Artocarpin], the remaining activity at 17 µM is greater than 80%.

For `CC(C)=CCc1c(O)c(CC=C(C)C)c2oc3c(c(=O)c2c1O)C(C=C(C)C)Oc1cc(O)c(O)cc1-3` (stereo not drawn) [Artoheterophyllin B], the remaining activity at 17 µM is greater than 80%.

On to `CC(C)=CCc1c2c(c(O)c3c(=O)c(-c4ccc(O)c(O)c4)coc13)C=CC(C)(C)O2` [Auriculasin], for which the remaining activity at 17 µM is greater than 80%.

Take `CC(C)=CCc1c(O)cc(O)c2c(=O)c(O[C@@H]3O[C@@H](C)[C@H](O)[C@@H](O)[C@H]3O)c(-c3ccc(O)cc3)oc12` [Baohuoside II]: the remaining activity at 17 µM is greater than 80%.

For the molecule `COc1ccc(-c2oc3c(CC=C(C)C)c(O)cc(O)c3c(=O)c2O[C@@H]2O[C@@H](C)[C@H](O)[C@@H](O)[C@H]2O)cc1` [Baohuoside I], the remaining activity at 17 µM is 10 to 80%.

As for `COc1ccc(-c2oc3c(CC=C(C)C)c(O)cc(O)c3c(=O)c2O[C@@H]2O[C@@H](C)[C@H](O[C@@H]3O[C@H](CO)[C@@H](O)[C@H](O)[C@H]3O)[C@@H](O)[C@H]2O)cc1` [Baohuoside VII], the remaining activity at 17 µM lay in the range of 10 to 80%.

As for `CC(C)=CCc1c(O[C@@H]2O[C@H](CO)[C@@H](O)[C@H](O)[C@H]2O)cc(O)c2c(=O)c(O[C@@H]3O[C@@H](C)[C@H](O)[C@@H](O)[C@H]3O[C@@H]3O[C@@H](C)[C@H](O)[C@@H](O)[C@H]3O)c(-c3ccc(O)cc3)oc12` [Baohuoside V], the remaining activity at 17 µM lay in the range of 10 to 80%.

In the case of `CC(C)=CCc1cc2c(cc1O)O[C@H](c1ccc(O)cc1)CC2=O` [Bavachin], the remaining activity at 17 µM was greater than 80%.

As to `COc1cc2c(cc1CC=C(C)C)C(=O)C[C@@H](c1ccc(O)cc1)O2` [Bavachinin], the remaining activity at 17 µM is greater than 80%.

Turning to `COc1c(C2=Cc3ccc(O)cc3OC2)ccc(O)c1CC=C(C)C` [Bidwillol A], the remaining activity at 17 µM is greater than 80%.

As for `CC(C)=CCc1cc(-c2oc3c(CC=C(C)C)c(O)cc(O)c3c(=O)c2O)ccc1O` [Broussoflavonol F], the remaining activity at 17 µM was greater than 80%.

On to `COc1ccc(-c2oc3c(CC=C(C)C)c(O[C@@H]4O[C@H](CO)[C@@H](O)[C@H](O)[C@H]4O)cc(O)c3c(=O)c2O[C@@H]2O[C@@H](C)[C@H](OC(C)=O)[C@@H](O)[C@H]2O[C@@H]2O[C@H](CO)[C@@H](O)[C@H](OC(C)=O)[C@H]2O)cc1` [Caohuoside E], for which the remaining activity at 17 µM is greater than 80%.

As for `CC(C)=CCc1cc([C@H]2Oc3cc(O)cc(O)c3C(=O)[C@@H]2O)cc(CC=C(C)C)c1O` [Cathayanon H], the remaining activity at 17 µM is greater than 80%.
